Assay results: the OPERA property sets (Mansouri et al. 2018)
Converted amounts (≈) assume the structure as drawn.

Settings: 25 °C

Row | Compound | solubility
1 | Cc1c(C)c(C)c(C)c(C)c1C | 1.45 µM (≈ 0.235 µg/mL)
2 | CCCCCCCCc1ccccc1 | 0.347 µM (≈ 0.066 µg/mL)
3 | Cc1ccc(C)c(O)c1C | 11600 µM (≈ 1580 µg/mL)
4 | Fc1ccc(CCl)cc1 | 2860 µM (≈ 413 µg/mL)
5 | Clc1cccc2ccccc12 | 107 µM (≈ 17.4 µg/mL)

Second part, the molecule after the results:

Row | solubility | Compound
6 | 491 µM (≈ 76.8 µg/mL) | CCCCCCCCC(C)=O
7 | 14200 µM (≈ 2240 µg/mL) | CC(Br)CCl (configuration not stated)
8 | 212000 µM (≈ 35400 µg/mL) | CC(=O)OCCBr
9 | 133 µM (≈ 22.9 µg/mL) | CCCCCCCCC(=O)OC
10 | 2.54 µM (≈ 0.447 µg/mL) | CCCCCCCc1ccccc1
11 | 353 µM (≈ 51.5 µg/mL) | Fc1cccc2ccccc12
12 | 2610 µM (≈ 371 µg/mL) | CCCCCCCC(C)=O
